Test: gradient 5% acetonitrile 3 min, to 50% in 2 min, to 85% in 15 min, held 3 min, 100 µL/min
Conditions: column: Zorbax Extend-C18 2.1 x 50 mm; eluents: water / acetonitrile, 0.1% formic acid
How it was run: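 Data were gathered over 3 months by HPLC coupled to a quadrupole time-of-flight mass spectrometer, operated in positive and negative ionization mode. Mixtures of ~100 pure standards ran on a Zorbax Extend-C18 column (2.1 × 50 mm, 1.8 μm) at 100 μL/min, with water and acetonitrile each containing 0.1% formic acid and dead and dwell volumes of 40 μL and 900 μL. Retention time was read from adduct peaks picked by computer and checked manually.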

| SMILES | RP-LC retention time |
| --- | --- |
| O=C(O)c1cnc(NCc2cccnc2)nc1-c1ccc(Cl)cc1 | 606 s |
| CCOc1ccc2nc(NC(=O)C3CCN(S(=O)(=O)c4cn(C(C)C)cn4)CC3)sc2c1 | 829 s |
| Cc1ccc(Cc2nc(-c3ccc(S(=O)(=O)N4CCC(C(=O)N5CCCC5)CC4)cc3)no2)cc1 | 1060 s |
| COc1ccc(OC)c(Nc2nc(NCC3CCCO3)nc(N)c2[N+](=O)[O-])c1 (stereo unspecified) | 810 s |
| CCc1nc(-c2cc(S(=O)(=O)N3CCC(C(=O)NCc4ccc(C)o4)CC3)c(C)s2)no1 | 969 s |
| CCCN(CC1CCOC1)C(=O)Nc1ccc(OC)c(F)c1 (stereo unspecified) | 777 s |
| CCOC(=O)CNC(=O)N1CCCC1c1ccccc1Cl (stereo unspecified) | 804 s |
| Cc1cccc(C)c1NS(=O)(=O)c1cc(-c2cc(C(F)(F)F)on2)sc1C | 1230 s |
| O=c1c2sccc2n(Cc2nc(-c3ccccc3)no2)c(=O)n1-c1ccc(F)cc1 | 969 s |
| CC1CCN(S(=O)(=O)c2ccc(-c3cc(C(F)(F)F)on3)o2)CC1 | 1190 s |
| Cc1ccc(Cn2c(=O)c(N3CCN(C(=O)Nc4ccc5c(c4)OCO5)CC3)nc3cccnc32)cc1 | 1070 s |
| COc1ccc(-c2noc(C3CC(=O)N(c4ccc(Cl)cc4)C3)n2)c(OC)c1 (stereo unspecified) | 928 s |
| COc1ccc(C(=O)NC2CCN(c3cc(-c4cccs4)[nH]n3)C2)cc1OC (stereo unspecified) | 638 s |
| O=c1c2cc(-c3cccs3)nn2cnn1Cc1nc(-c2ccc(F)cc2)no1 | 1040 s |
| O=C(Cn1cccc1-c1nnc(-c2ccccc2)o1)NCc1ccccc1 | 882 s |
| CCCC(NC(=O)c1ccc(OC)c(OC)c1)C(=O)Nc1nc2ccccc2[nH]1 (stereo unspecified) | 650 s |
| CCc1cc(=O)n(CC(=O)N(C)c2cccc(C)c2)c(N2CCOCC2)n1 | 764 s |
| CC(C)CNC(=O)N1CCc2nc(OCC3CC3)ccc2C1 | 848 s |

| SMILES | RP-LC retention time |
| --- | --- |
| Cc1sc(NC(=O)CSc2nnc3c4ccccc4n(C)c3n2)nc1-c1ccccc1 | 1030 s |
| COC(=O)c1c(C)c(C(=O)C(C)N(C(=O)c2ccccc2Cl)C(C)C)c(C)n1C (stereo unspecified) | 975 s |
| Cc1nn(-c2ccc(N3CCOCC3)nn2)c(C)c1CCC(=O)NCCc1ccco1 | 661 s |
| CCn1cc(S(=O)(=O)N2CC(Cn3c(C)cnc3-c3ccncc3)C2)cn1 | 574 s |
| O=C(NCC(c1cccs1)N1CCc2ccccc21)c1ccco1 (stereo unspecified) | 894 s |
| COCC(CN1CCN(C2=NS(=O)(=O)c3ccccc32)CC1)OC(=O)c1ccc(C)cc1 (stereo unspecified) | 646 s |
| O=C1CC(c2ccco2)Cc2[nH]c(=O)c(C(=O)Nc3ccccc3C(F)(F)F)cc21 (stereo unspecified) | 746 s |
| CCN(CC)C(=O)c1cnc2snc(C)c2c1N1CCC(C(=O)Nc2ccc(Br)c(C)c2)CC1 | 1080 s |
| Cc1cc2nc(CSc3nnc(-c4cccc(Cl)c4)o3)cc(=O)n2o1 | 792 s |
| O=C(NCC1CN(CC2CC2)CC12CCCCC2)Nc1cc(F)cc(F)c1 (stereo unspecified) | 760 s |
| O=C(CC1CCCC1)NCCc1noc(C2CC2)n1 | 713 s |
| Cc1onc(-c2ccccc2Cl)c1C(=O)NCCn1nc(-c2ccccc2)n(C)c1=O | 708 s |
| Cc1c(C)n(-c2ccccc2)c2ncn(CC(=O)NCc3ccco3)c(=O)c12 | 809 s |
| CCc1cccc(NC(=O)Cn2c(-c3cnccn3)nc(C)c(C)c2=O)c1 | 809 s |
| CCn1nccc1C(=O)N1CCc2c(-c3ccc(OC)cc3)cccc2[C@H]1C | 1040 s |
| O=C1COc2cc(Cl)ccc2N1Cc1nc(-c2cccc(F)c2)no1 | 1100 s |
| COC(=O)C1=C(C)NC(=O)NC1c1ccc(Cl)c(Cl)c1 (stereo unspecified) | 726 s |
| CCCCNC(=O)CSc1nnc(C)c2c(C)n(-c3ccccc3)nc12 | 646 s |
